Key:
[1] = target: T1, untagged full length SMYD3 (Homo sapiens, UniProt Q9H7B4); experiment: Thermal Shift Assay; type: binding; details: protein 1.5-2.0 μM, 5× SYPRO Orange, scans 25° C. to 80° C.; control 4% DMSO
T1 construct: As protein untagged full length SMYD3 was used
T1 sequence (Q9H7B4 1-428): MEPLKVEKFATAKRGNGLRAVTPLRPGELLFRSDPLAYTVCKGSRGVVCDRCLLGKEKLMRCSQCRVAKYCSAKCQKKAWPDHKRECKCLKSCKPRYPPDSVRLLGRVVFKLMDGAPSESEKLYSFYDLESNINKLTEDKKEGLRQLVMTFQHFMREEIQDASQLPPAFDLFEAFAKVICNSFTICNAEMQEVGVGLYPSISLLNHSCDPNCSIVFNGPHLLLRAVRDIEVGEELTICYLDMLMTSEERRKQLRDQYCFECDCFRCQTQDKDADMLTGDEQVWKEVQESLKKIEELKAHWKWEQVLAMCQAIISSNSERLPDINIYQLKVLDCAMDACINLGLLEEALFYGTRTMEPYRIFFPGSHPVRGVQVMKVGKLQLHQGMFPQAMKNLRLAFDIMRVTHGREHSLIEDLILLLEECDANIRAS
Experimental: Thermal Shift Assay Thermal melting experiments were performed with a ViiA™ Real-Time PCR machine (Thermo Fisher Scientific) in 384-well microliter plate with a final volume of 5 μL. Melting curves were obtained at a protein concentration of 1.5-2.0 μM and 5× SYPRO Orange (Invitrogen) using buffer containing 20 mM Tris pH7.0; 150 mM NaCl; 1.0 mM DTT. As protein untagged full length SMYD3 was used. […] As control 4% DMSO was used. Scans were measured from 25° C. to 80° C. at a scanning rate of 0.1° C./sec. All TSA data were analyzed by using Genedata Assay Analyzer.

[2] = target: T2, SMYD3 (Homo sapiens, UniProt Q9H7B4); experiment: SMYD3 Scintillation Proximity Assay (SPA), methylation of MAP3K2 Peptide; type: biochemical; details: SMYD3 full length enzyme 10 nM, 3H-SAM 125 nM, MAP3K2 Peptide 1 μM, 120 min at 22° C.
T2 construct: The SMYD3 full length enzyme was produced in-house by expression (with an N-terminal 6×His tag) in E. coli; 6xHis (N); made in house; host or cells: E. coli
T2 sequence (Q9H7B4 1-428): T1 sequence (Q9H7B4 1-428)
Experimental: SMYD3 Scintillation Proximity Assay (SPA)
The SMYD3 full length enzyme was produced in-house by expression (with an N-terminal 6×His tag) in E. coli and purification by affinity chromatography on a Ni-NTA Sepharose column followed by a size exclusion chromatography step on a Superdex 200 16/60 column (GE Healthcare).
To this end, 100-fold concentrated compound solutions (in DMSO) were previously prepared by serial dilution (1:3.4) of 2 mM stocks in a clear low volume 384-well source microtiter plate (Greiner Bio-One), from which 100 nl of compounds were transferred into a white low volume test microtiter plate from the same supplier. […] The resulting mixture (5 μl final volume) was shortly centrifuged (2 min., 1500 rpm) and incubated at 22° C. during 120 min. […] Plates containing the stopped reaction were sealed with transparent adhesive foil (Perkin Elmer), centrifuged (2 min., 1500 rpm), and further incubated overnight at 4° C. in order to allow the SPA signals to develop. Subsequently, the amount of product was evaluated by measuring the energy transfer from the […] emitted by the 3H-labeled substrate to the scintillator co-polymerized in the bead's matrix, using a TopCount NXT scintillation counter (Packard) with the standard instrument settings for this purpose. The resulting scintillation counts were taken as indicator for the amount of methylated peptide per well. […] IC50 values were calculated by fitting the normalized inhibition data to a 4-parameter logistic equation using the XLFit analysis software (IDBS).

Thermal shift assay (° C.) [1] [°C]	IC50 [2] [nM]	Compound
7.49	481	C[C@H]1CC(=O)Nc2cc(C(=O)NCCC3CC3)ccc2N1C(=O)NC1CCNCC1 [Example 43, (2S)—N^7-(2-cyclopropylethyl)-2-methyl-4-oxo-N^1-(piperidin-4-yl)-2,3,4,5-tetrahydro-1H-1,5-benzodiazepine-1,7-dicarboxamide]
7.24	390	C[C@H]1CC(=O)Nc2cc(C(=O)NCCC3CC3)ccc2N1C(=O)N(C)C1CCNCC1 [Example 45, (2S)—N^7-(2-cyclopropylethyl)-N^1,2-dimethyl-4-oxo-N^1-(piperidin-4-yl)-2,3,4,5-tetrahydro-1H-1,5-benzodiazepine-1,7-dicarboxamide]
